{"source": "patent US20250049926A1", "about": "“PHARMACEUTICAL COMPOSITIONS COMPRISING MODIFIED BETACYCLODEXTRINS” (priority 2021, published 2025)", "experiment": "Solubility measurement of saturated solutions by HPLC at room temperature (0 h and 24 h)", "assay_type": "physicochemical", "conditions": "buffered water with excipients, pH 4, aqueous with cosolvent or surfactant or cyclodextrin, thermodynamic from solid", "description": "The vial contents are prepared starting with 2.5 mg of the compound of formula (I). The primary excipient is added followed by any further excipient and then the buffered water to a total volume of 500 μL. All components are mixed in a vortex mixer for ca. 5 minutes. If everything is dissolved an additional 2.5 mg of the compound of formula (I) is added and vortexed again for ca. 5 minutes. This is repeated until a saturated solution (suspension) is obtained.\nThe solubility in vial 1 is measured immediately as described below.\nTo measure solubility 400 μl of the suspension are taken and placed in a centrifugation device above a 0.2 μm filter. Centrifugation is performed at 14,000 rpm for 10 minutes and if necessary repeated for additional 10 minutes. The filter is removed from the vial and 100 μL is taken and diluted with 400 μL high-performance liquid chromatography (HPLC) diluent solution (see below) or diluted with 900 μL HPLC diluent solution in the event 5 mg or more of the compound of formula (I) was used. The pH of the solution is measured. A further 100 μL of the vial solution is taken and diluted with 400 μL of HPLC diluent solution or diluted with 900 μL HPLC diluent solution in the event 5 mg or more of the compound of formula (I) was used. The assay of the solution versus control stock solution is measured by HPLC and the solubility is calculated as described below. The HPLC diluent solution is 0.1% trifluoroacetic acid (TFA) in acetonitrile (ACN) and water (1:1 v/v).\nAll solubility tests are performed at room temperature.\nThe HPLC method for assessing solubility is performed as follows:\nThe solubility of the compound of formula (I) is calculated according to the following formula:\n[formula] • Solubility=solubility of compound of formula (I) (mg/mL) • A=peak area of the compound of the sample tested • a=value of constant “a” in Linear regression equation y=ax+b • b=value of constant “b” in Linear regression equation y=ax+b • n=dilution time • Formulations for stability assessment are prepared as follows: […]"}
{"smiles": "COc1cc(N2CCNCC2)ccc1Nc1ncc2c(n1)-n1ccc(C(=O)Nc3c(C)cccc3C)c1CC2", "note": "[compound of formula (I)]", "values": [{"measurement": "solubility at 24 h", "setting": "CBS 30 mM pH 4.0, NaCl 3 mg/mL, SBE-beta-CD 40 mg/mL + Kollidon 12 P188 5 mg/mL, pH exp 4.2", "value": 3710, "unit": "µg/mL"}, {"measurement": "solubility at 0 h", "setting": "CBS 30 mM pH 4.0, NaCl 3 mg/mL, SBE-beta-CD 40 mg/mL + Na CMC 5 mg/mL, pH exp 4.1", "value": 1710, "unit": "µg/mL"}, {"measurement": "solubility at 24 h", "setting": "CBS 30 mM pH 4.0, NaCl 3 mg/mL, SBE-beta-CD 40 mg/mL + Na CMC 5 mg/mL, pH exp n. a.", "value": 2670, "unit": "µg/mL"}, {"measurement": "solubility at 0 h", "setting": "CBS 30 mM pH 4.0, NaCl 3 mg/mL, SBE-beta-CD 40 mg/mL + PEG 400 1 mg/mL, pH exp 4.1", "value": 2480, "unit": "µg/mL"}, {"measurement": "solubility at 24 h", "setting": "CBS 30 mM pH 4.0, NaCl 3 mg/mL, SBE-beta-CD 40 mg/mL + PEG 400 1 mg/mL, pH exp 4.2", "value": 3730, "unit": "µg/mL"}, {"measurement": "solubility at 0 h", "setting": "CBS 30 mM pH 4.0, NaCl 3 mg/mL, SBE-beta-CD 40 mg/mL + PEG 400 5 mg/mL, pH exp 4.1", "value": 2340, "unit": "µg/mL"}, {"measurement": "solubility at 24 h", "setting": "CBS 30 mM pH 4.0, NaCl 3 mg/mL, SBE-beta-CD 40 mg/mL + PEG 400 5 mg/mL, pH exp 4.2", "value": 3750, "unit": "µg/mL"}, {"measurement": "solubility at 0 h", "setting": "CBS 30 mM pH 4.0, NaCl 3 mg/mL, SBE-beta-CD 40 mg/mL + PEG 400 10 mg/mL, pH exp 4.1", "value": 2590, "unit": "µg/mL"}, {"measurement": "solubility at 24 h", "setting": "CBS 30 mM pH 4.0, NaCl 3 mg/mL, SBE-beta-CD 40 mg/mL + PEG 400 10 mg/mL, pH exp 4.2", "value": 3790, "unit": "µg/mL"}, {"measurement": "solubility at 0 h", "setting": "CBS 30 mM pH 4.0, NaCl 3 mg/mL, SBE-beta-CD 40 mg/mL + PEG 400 20 mg/mL, pH exp 4.1", "value": 2570, "unit": "µg/mL"}, {"measurement": "solubility at 24 h", "setting": "CBS 30 mM pH 4.0, NaCl 3 mg/mL, SBE-beta-CD 40 mg/mL + PEG 400 20 mg/mL, pH exp 4.2", "value": 3810, "unit": "µg/mL"}, {"measurement": "solubility at 0 h", "setting": "CBS 30 mM pH 4.0, NaCl 3 mg/mL, SBE-beta-CD 40 mg/mL + PEG 400 30 mg/mL, pH exp 4.1", "value": 2670, "unit": "µg/mL"}, {"measurement": "solubility at 24 h", "setting": "CBS 30 mM pH 4.0, NaCl 3 mg/mL, SBE-beta-CD 40 mg/mL + PEG 400 30 mg/mL, pH exp 4.2", "value": 3860, "unit": "µg/mL"}, {"measurement": "solubility at 0 h", "setting": "CBS 30 mM pH 4.0, NaCl 3 mg/mL, SBE-beta-CD 40 mg/mL + PEG 4000 5 mg/mL, pH exp 4.1", "value": 2420, "unit": "µg/mL"}, {"measurement": "solubility at 24 h", "setting": "CBS 30 mM pH 4.0, NaCl 3 mg/mL, SBE-beta-CD 40 mg/mL + PEG 4000 5 mg/mL, pH exp 4.2", "value": 3670, "unit": "µg/mL"}, {"measurement": "solubility at 0 h", "setting": "CBS 30 mM pH 4.0, NaCl 3 mg/mL, SBE-beta-CD 40 mg/mL + Soybean lecithin 10 mg/mL, pH exp 4.1", "value": 2520, "unit": "µg/mL"}, {"measurement": "solubility at 24 h", "setting": "CBS 30 mM pH 4.0, NaCl 3 mg/mL, SBE-beta-CD 40 mg/mL + Soybean lecithin 10 mg/mL, pH exp 4.3", "value": 3600, "unit": "µg/mL"}, {"measurement": "solubility at 0 h", "setting": "CBS 30 mM pH 4.0, NaCl 3 mg/mL, SBE-beta-CD 40 mg/mL + Tween 80 5 mg/mL, pH exp 4.1", "value": 2950, "unit": "µg/mL"}, {"measurement": "solubility at 24 h", "setting": "CBS 30 mM pH 4.0, NaCl 3 mg/mL, SBE-beta-CD 40 mg/mL + Tween 80 5 mg/mL, pH exp 4.2", "value": 4040, "unit": "µg/mL"}, {"measurement": "solubility at 0 h", "setting": "CBS 30 mM pH 4.0, NaCl 6 mg/mL, SBE-beta-CD 40 mg/mL + Kollidon 12 PF 2.5 mg/mL, pH exp 4.1", "value": 2370, "unit": "µg/mL"}, {"measurement": "solubility at 24 h", "setting": "CBS 30 mM pH 4.0, NaCl 6 mg/mL, SBE-beta-CD 40 mg/mL + Kollidon 12 PF 2.5 mg/mL, pH exp 4.3", "value": 3690, "unit": "µg/mL"}, {"measurement": "solubility at 0 h", "setting": "CBS 30 mM pH 4.0, NaCl 6 mg/mL, SBE-beta-CD 40 mg/mL + Kollidon 12 PF 5 mg/mL, pH exp 4.0", "value": 2510, "unit": "µg/mL"}, {"measurement": "solubility at 24 h", "setting": "CBS 30 mM pH 4.0, NaCl 6 mg/mL, SBE-beta-CD 40 mg/mL + Kollidon 12 PF 5 mg/mL, pH exp 4.2", "value": 3750, "unit": "µg/mL"}, {"measurement": "solubility at 0 h", "setting": "CBS 30 mM pH 4.0, NaCl 6 mg/mL, SBE-beta-CD 40 mg/mL + Kollidon 12 PF 10 mg/mL, pH exp 4.1", "value": 2520, "unit": "µg/mL"}, {"measurement": "solubility at 24 h", "setting": "CBS 30 mM pH 4.0, NaCl 6 mg/mL, SBE-beta-CD 40 mg/mL + Kollidon 12 PF 10 mg/mL, pH exp 4.2", "value": 3700, "unit": "µg/mL"}, {"measurement": "solubility at 0 h", "setting": "CBS 30 mM pH 4.0, NaCl 6 mg/mL, SBE-beta-CD 40 mg/mL + Propylene glycol 5 mg/mL, pH exp 4.1", "value": 2360, "unit": "µg/mL"}, {"measurement": "solubility at 24 h", "setting": "CBS 30 mM pH 4.0, NaCl 6 mg/mL, SBE-beta-CD 40 mg/mL + Propylene glycol 5 mg/mL, pH exp 4.3", "value": 3820, "unit": "µg/mL"}, {"measurement": "solubility at 0 h", "setting": "CBS 30 mM pH 4.0, NaCl 6 mg/mL, SBE-beta-CD 40 mg/mL + Propylene glycol 10 mg/mL, pH exp 4.1", "value": 2420, "unit": "µg/mL"}]}
